Like-named read-outs stand apart in the source and are kept apart here.
What was measured:
[1] = tested on: HT-29 colon carcinoma cells; assay: MTT cell viability assay, HT-29 colon carcinoma; format: cell-based; conditions: Homo sapiens, read-out: Inhibitory concentration IC50
Procedure: (§1) 518A2 (Department of Radiotherapy, Medical University of Vienna, Vienna, Austria) melanoma, KB-V1^Vbl (ACC-149) cervix carcinoma, MCF-7^Topo (ACC-115) breast carcinoma, HT29 (ACC-299) colon carcinoma were cultivated in Dulbecco’s Modified Eagle Medium (DMEM) supplemented with 10% fetal bovine serum and 1% antibiotic-antimycotic at 37 °C, 5% CO2, and 95% humidity. To keep MCF-7^Topo and KB-V1^Vbl cells resistant, the maximum-tolerated doses of topotecan or vinblastine were added to the cell culture medium 24 h after every passage. The human HL60 leukemia cells were obtained from the German National Resource Center for Biological Material (DSMZ), Braunschweig. Neuroectodermal stem cells NE-4C (ATCC No. CRL-2925), primary mouse astrocytes, rat glioma C6 (ATCC No. CCL-107) and human glioma U87 (ATCC No. HTB-14) were used.
(§2) Non-GBM cells (5 × 10^4 cells/mL, 100 µL/well) were grown in 96-well plates for 24 h. […] After the addition of 12.5 µL of a 0.5% MTT solution in PBS, the cells were incubated for 3 h at 37 °C so that the water-soluble MTT could be converted to formazan crystals. Then, the plates were centrifuged (300× g, 5 min, 4 °C), the medium withdrawn, and the formazan dissolved in 25 µL of DMSO containing 10% sodium dodecylsulfate (SDS) and 0.6% acetic acid for at least 2 h at 37 °C. In the case of the HL60 cells, after 2 h, the precipitate of formazan crystals was redissolved in a 10% solution of SDS in DMSO containing 0.6% acetic acid.

[2] = tested on: MZ-54 glioblastoma cells; assay: Annexin V/PI flow cytometry; format: cell-based, human; conditions: MZ-54 cells
Procedure: U251 und Mz54 glioblastoma cells (6 × 10^5 cells/mL, 0.5 mL/well) were seeded in 24-well plates. The next day, the cells were treated with 1, 2 or vehicle (DMSO) for 48 h. Prior to the measurement, the cells were harvested and stained using Annexin-V-APC (BD Biosciences, Heidelberg, Germany) and propidium iodide (PI, 0.05 mg/mL, Sigma-Aldrich, Taufkirchen, Germany). Cells were analyzed with BD Accuri C6 flow-cytometer (BD Biosciences), and data processing was performed using BD Accuri C6 software (BD Biosciences).
Figure 7 (A–D). Annexin V/PI flow cytometry of MZ–54 cells upon treatment with 1 or 2, mean + SEM; Brown–Forsythe ANOVA test with Dunnett’s T3 multiple comparison test (compared with DMSO control); * < 0.05; ** < 0.01; *** < 0.001; **** < 0.0001.

[3] = tested on: astrocytes and neurons in primary neuronal cultures; assay: Immunostaining of GFAP and βIII-tubulin in primary neuronal cultures; format: cell-based, mouse; conditions: 1 µM; for effect on GFAP filaments of astrocytes: 48 h exposure
Procedure: Astroglia cells grown on poly-L-lysine-coated glass cover slips were fixed with 4% paraformaldehyde in PBS for 20 min at room temperature and then permeabilized with Triton X-100 (0.1% v/v in PBS; 5 min). Nonspecific antibodies were blocked by incubation with 3% FBS in PBS (room temperature, 1 h). α-GFAP antibody (rabbit, DAKO) was used in a dilution of 1:2000 and was visualized by anti-rabbit IgG Alexa 594 (1:1000). DAPI (4′,6-diamidino-2-phenylindole) was used for nuclei staining. Fluorescence images were captured manually on a Zeiss Axiovert 200 M microscope fitted with 20- to 60-fold zoom and a Zeiss AxioCam MRm digital camera. Further applied antibodies were tubulin III (Sigma T5076), used at a dilution of 1:1000, and Annexin V. Cy3.18 (Sigma A4963).
Figure 4 Immunostaining of primary neurons derived from E14, 5 forebrains treated with 1 µM of 1, 2 or all-trans retinoic acid (RA) plus 1. Blue: nuclei stained with DAPI; green: tubulin stained with βIII-tubulin specific antibody; red: GFAP stained with α-GFAP antibody. Fluorescence microscope Zeiss Axiovert 200 M, 63× objective, 1024 × 1024 res. Scale bar: 50 µm.

[4] = tested on: C6 astrocytoma cells; assay: MTT cell viability assay, C6 astrocytoma; format: cell-based; conditions: Rattus norvegicus, read-out: Inhibitory concentration IC50
Procedure: as §1
Non-GBM cells (5 × 10^4 cells/mL, 100 µL/well) were grown in 96-well plates for 24 h. Then, they were treated with various concentrations of the test compounds or vehicle (DMSO, or EtOH) for 72 h at 37 °C. After the addition of 12.5 µL of a 0.5% MTT solution in PBS, the cells were incubated for 3 h at 37 °C so that the water-soluble MTT could be converted to formazan crystals. Then, the plates were centrifuged (300× g, 5 min, 4 °C), the medium withdrawn, and the formazan dissolved in 25 µL of DMSO containing 10% sodium dodecylsulfate (SDS) and 0.6% acetic acid for at least 2 h at 37 °C. In the case of the HL60 cells, after 2 h, the precipitate of formazan crystals was redissolved in a 10% solution of SDS in DMSO containing 0.6% acetic acid.
(§3) […] Afterward, 10 µL of a 5 mg/mL MTT solution in PBS was added to the cells for 3 h at 37 °C. Then, the spheres were centrifuged shortly to collect the cells on the bottom of the plate, and the medium was removed by careful pipetting for both adherently grown and floating sphere GBM cultures. Afterward, formazan was dissolved in a mixture (24:1 v:v) of isopropanol and 1 M HCl using 100 µL for adherent cells by shaking the plates for at least 20 min. The absorbance of formazan (λ = 570 nm), and background (λ = 630 nm) was measured with a microplate reader (Tecan Spark, Tecan Deutschland GmbH, Crailsheim, Germany).

[5] = tested on: MCF-7^+Topo breast carcinoma cells; assay: MTT cell viability assay, MCF-7+Topo breast carcinoma; format: cell-based; conditions: Homo sapiens, MCF7/Topo, read-out: Inhibitory concentration IC50
Procedure: as §1, §2

[6] = tested on: MZ-54 glioblastoma cells; assay: MTT cell viability assay, MZ-54 glioblastoma; format: cell-based; conditions: Homo sapiens, read-out: Inhibitory concentration IC50
Procedure: (§4) U251 (formerly known as U-373 MG; ECACC 09063001), Mz54 (CVCL_M406) human glioblastoma cell lines were cultured in DMEM+GlutaMax supplemented with 10% fetal bovine serum and 1% penicillin/streptomycin mixture. The human glioma cell line Mz54 was obtained from the Dept. of Neurosurgery, University Medical Centre, Johannes Gutenberg University Mainz, Germany, where this line was isolated from a recurrent grade IV glioblastoma. U251 and Mz54 cells were used in passages between 10 and 25 after re-authentication and 40 to 55 after culture establishment, respectively. Only mycoplasma-free cell cultures were used.
as §3

[7] = tested on: U251 glioblastoma cells; assay: MTT cell viability assay, U251 glioblastoma; format: cell-based; conditions: Homo sapiens, read-out: Inhibitory concentration IC50
Procedure: as §4, §3

Row | SMILES | IC50 ([1]; HT-29, 24 h exposure) | IC50 ([1]; HT-29, 48 h exposure) | cell death (Annexin V/PI) [2] | effect on neuronal networks ([3]; 48 h) | effect on GFAP filaments of astrocytes [3] | IC50 ([4]; C6, 24 h exposure) | IC50 ([4]; C6, 48 h exposure) | IC50 ([5]; 24 h exposure) | IC50 ([5]; 48 h exposure) | IC50 ([6]; MZ-54, 24 h exposure) | IC50 ([6]; MZ-54, 48 h exposure) | IC50 ([7]; U-251, U251, 24 h exposure) | IC50 ([7]; U-251, U251, 48 h exposure)
1 | CC1=C2C(=CC(C)(C)[C@@H]2O)C(=O)[C@](C)(O)C12CC2 [Compound 1, illudin M] | 1500 ± 600 nM | 60 ± 10 nM | dose- and time-dependent increase in cell death | did not completely disorganize neuronal networks | markedly pitted | 1000 ± 300 nM | 400 ± 60 nM | 350 ± 130 nM | 50 ± 10 nM | 550 ± 160 nM | 60 ± 10 nM | 300 ± 50 nM | 120 ± 20 nM
2 | CC1=C(/C=C/C(C)=C/C=C/C(C)=C/C(=O)O[C@@H]2C3=C(C)C4(CC4)[C@@](C)(O)C(=O)C3=CC2(C)C)C(C)(C)CCC1 [Compound 2, illudin M retinoate] | 38000 ± 4000 nM | 4000 ± 1300 nM | dose- and time-dependent increase in cell death |  | did not cause similar alterations to astrocytes | 40000 ± 4000 nM | 12000 ± 1300 nM | 2500 ± 600 nM | 80 ± 10 nM |  | 5480 ± 1200 nM |  | 4510 ± 1300 nM

Reference: PMC9408991, “Antitumor Effects of a New Retinoate of the Fungal Cytotoxin Illudin M in Brain Tumor Models” (International Journal of Molecular Sciences, 2022)
